Assay results published in the METLIN SMRT retention time set (Domingo-Almenara et al. 2019).

Experiment: gradient 5% acetonitrile 3 min, to 50% in 2 min, to 85% in 15 min, held 3 min, 100 µL/min
Settings: column: Zorbax Extend-C18 2.1 x 50 mm; eluents: water / acetonitrile, 0.1% formic acid
Procedure, shortened: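 The mobile phases were water and acetonitrile, each with 0.1% formic acid, pumped at 100 μL/min through a Zorbax Extend-C18 column (2.1 × 50 mm, 1.8 μm). Pure standards were injected as mixtures of ~100 molecules and detected by a quadrupole time-of-flight mass spectrometer in positive and negative ionization mode. Retention time came from computationally picked adduct peaks, each inspected by hand.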

SMILES	RP-LC retention time [s]
CCc1cccc2[nH]c3cc([N+](=O)[O-])ccc3c12	1180
Cc1nc(-c2noc(-c3cccnc3)n2)cn1CC(=O)N1CCc2ccccc21	714
COC(=O)C(NC(=O)N1CCCn2nc(-c3cccnc3)cc2C1)c1ccccc1 (centres undefined)	616
CCc1ccc(NC(=O)N2CCc3nc(-c4ccc(Cl)cc4)ncc3C2)cc1	1150
CCn1c(=O)n(Cc2cccc(Cl)c2)c(=O)c2cnc(-c3ccc(OC)cc3)nc21	1340
Cc1cnc(C(=O)N2[C@H]3CC[C@@H]2c2cnc(-c4ccc(F)cc4)nc2C3)cn1	874
CC(C)(C)c1noc(-c2ccc(=O)n(Cc3cccc(Cl)c3)n2)n1	1150
Cc1ccc(C)c(-c2csc(Cc3nc(-c4ccc5c(c4)OCO5)no3)n2)c1	1260
COc1cc(-c2nc3ncccn3c2Nc2ccc(C(C)C)cc2)ccc1O	711
Cc1ccc(OCc2nnc3sc(C4COc5ccccc5O4)nn23)cc1 (centres undefined)	1010
CCOC(=O)c1cnc2c(C(F)(F)F)cccc2c1NCCN(C)C	614
COc1ccc(C(C)NC(=O)c2ccc3ncnc(N4CCCC4)c3c2)cc1 (centres undefined)	646
COc1cc(-c2nc(-c3ccc4c(c3)oc(=O)n4C)no2)cc(OC)c1OC	985
CN(C)c1ccc(C(=O)NC2CCN(c3cc(-c4ccc(Cl)cc4)[nH]n3)C2)cc1 (centres undefined)	790
COc1ccc(C(=O)NCc2ccc(OCCN(C)C)cc2)cc1OC	638
O=C1C2ON(c3ccccc3)C(c3ccccn3)C2C(=O)N1c1cccc(C(F)(F)F)c1 (centres undefined)	994
O=C(Nc1c(F)cccc1F)N1CCc2[nH]cnc2C1c1ccccc1 (centres undefined)	608
O=c1c2cnc3nc(-c4ccccc4)nn3c2ccn1CCc1c[nH]c2ccc(F)cc12	941
COc1ccc2c(c1)C1(CCN(S(=O)(=O)c3cc(F)cc(F)c3)C1)C(=O)N2C (centres undefined)	940

SMILES	RP-LC retention time [s]
COC(=O)c1cccc(C(=O)Nc2cc(C)cc(C)c2)n1	931
Cn1nc(-c2ccc(NC(=O)c3ccc([N+](=O)[O-])cc3Cl)cc2)ccc1=O	714
CCCN(C(=O)c1ccccc1C)c1nc(-c2ccccc2)cs1	1320
O=S(=O)(c1ccc2nc(N3CCN(c4ccccc4)CC3)ccc2c1)N1CCCCC1	1030
CSc1cccc(NC(=O)Nc2ccccc2C(N)=O)c1	856
CCc1cc(C(=O)Nc2ccccc2C)nc2ccnn12	1010
Cc1cc(-n2nnc(C(=O)O)c2C)ccc1F	705
CCOc1ccc(-c2[nH]ncc2CNS(=O)(=O)Cc2c(F)cccc2Cl)cc1	882
Cc1cc(-c2c(C)sc(C)c2S(=O)(=O)Nc2ccc(C)c(Cl)c2)n[nH]1	1100
COc1ccc(NC(=O)c2cnc3c(c2)c(=O)n(C)c(=O)n3-c2ccc(C)cc2)c(OC)c1	913
O=C(c1ccc(F)cc1Cl)N1CCc2nc(-c3ccc(Cl)cc3)ncc2C1	1160
Cc1ccc(Cn2cccc2C(=O)C(=O)Nc2ccc3c(c2)OCCO3)cc1	1090
O=C(Cc1cn2cc(F)ccc2n1)Nc1ccc(F)cc1	594
CCc1ccc(S(=O)(=O)N2CCN(Cc3nc4cc(C(C)(C)C)ccc4o3)CC2)cc1	998
Clc1ccccc1-c1noc(-c2nc(-c3ccncc3)no2)n1	1130
COc1ccc(-c2nc(-c3ccc4c(c3)nc(C)c(=O)n4C(C)C)no2)cc1	1160
Cc1nc(-c2ccncc2)nc2c1CCC(=O)N2Cc1ccccn1	559
O=C(O)CCc1conc1-c1cccc(F)c1	729

Results, then the compound that gave them:

RP-LC retention time [s]	SMILES
784	CCn1cc(-c2nc(C)c(C(=O)NCc3ccccc3)s2)c2cccnc21
796	O=C(Nc1ccc2c(c1)OCCO2)N1CC[C@@H]2CN(Cc3ccccc3)[C@@H]2C1
610	Cc1nc2c(c(C)c1CCC(=O)NCC1CCN(CC(C)C)C1)c(=O)n(C)c(=O)n2C (centres undefined)
742	Cc1ccc(-c2cc3c(=O)n(Cc4noc(CN5CCC(C)CC5)n4)ccn3n2)cc1C
762	C=CCN1C(=O)COc2ccc(-c3csc(NC(C)=O)n3)cc21
658	COCCCNC(=O)C1CCCN(c2ccc(=O)n(-c3ccc(OC)cc3)n2)C1 (centres undefined)
749	O=C(c1ccco1)N1CCC(Cc2nnc(-c3ccccc3)o2)CC1
1290	CCOc1nc2ccccc2nc1N1CCCC(C(=O)Nc2cccc(Cl)c2)C1 (centres undefined)
575	Cn1cnc(S(=O)(=O)N2CC(n3cc(C(=O)N4CCOCC4)nn3)C2)c1
1220	O=S(=O)(c1ccc(-c2noc(-c3ccccc3Br)n2)cc1)N1CCCC1
732	CCOC(=O)c1c(C)oc2nc(C)nc(NCCN3CCN(c4ccc(OC)cc4)CC3)c12
974	COc1ccc(CNC(=O)c2cn(-c3cc(N4CCCC(C)C4)ncn3)cn2)cc1 (centres undefined)
905	CC(=O)N1c2ccc(S(=O)(=O)N3CCCCC3)cc2CC1C(=O)NC1CCCCC1 (centres undefined)
587	COc1ccc(NC(=O)N2CCN(c3nc4ccncc4n(CC(C)C)c3=O)CC2)cc1
639	COc1ccc(CN2CCC(NC(=O)C3(c4ccccc4)CC3)C2)cn1 (centres undefined)
703	COc1cc2c(cc1OC)CN(C(=O)c1cc(-c3cccs3)[nH]n1)CC2
929	Cc1cccc(NC(=O)N2CCCC(C)(C(=O)NCc3ccc(F)cc3)C2)c1C (centres undefined)
901	Cc1ccc(-c2cn3c(CC(=O)N4CCc5ccccc54)csc3n2)cc1C
601	CCn1c(=O)c2ccccc2n(CC(=O)N2CCC(C(N)=O)CC2)c1=O
912	CCn1cc(-c2nc(C)c(C(=O)NCc3ccc(C)o3)s2)c2cccnc21
578	O=C(CN1C[C@H]2C[C@H](C1)[C@H]1CCCC(=O)N1C2)NCc1cccs1
1050	Cc1ccc(C)c(S(=O)(=O)N2CCC(C)(C(=O)NCc3ccccc3C)CC2)c1
806	CCOc1cc(=O)n2c(c1C(=O)Nc1cc(Cl)ccc1F)CCCC2
579	Cc1cccc(Nc2ccc(N3CCN(C(=O)c4cccs4)CC3)nn2)n1
837	O=C(CCCn1c(=O)c2cccn2c2ccc(F)cc21)NCc1cccs1
989	CSc1cccc(NC(=O)N2CCCC(C)(C(=O)NCc3ccc(C)cc3)C2)c1 (centres undefined)

RP-LC retention time [s]	SMILES
579	CCOC(=O)c1c(C)[nH]c(C(=O)N2CCCC(C(=O)NCCCN3CCN(CC)CC3)C2)c1C (centres undefined)
805	CC1=C(c2ccc(C)cc2)S(=O)(=O)N=C1N1CCC(NC(=O)C2CCC2)CC1
952	Cc1ccc(Cn2nc3ccc(S(=O)(=O)N4CCCC4)cn3c2=O)cc1C
1150	Cc1ccc2oc(-c3noc(C(=O)NCc4cccs4)n3)c(C)c2c1
601	CCN(CC)CCNC(=O)CN1C(=O)C2CCCCN2c2ccc(C(=O)N(C)C)cc21 (centres undefined)
627	COc1ccc(NC(=O)C2CCN(c3cc(N4CCSCC4)ncn3)CC2)cc1OC
1110	COc1ccc(OC)c(NC(=O)N2c3ccccc3CC2c2nc(C3CC3)no2)c1 (centres undefined)
586	O=C1CCN(Cc2ccc3c(c2)CCO3)CCCCCCN1
831	COc1ccccc1-c1noc(C2CCCN2C(=O)C2CCC2)n1 (centres undefined)
561	CCn1cc(CCNC(=O)NC)c2cccnc21
1040	C=CCN1C(=O)COc2ccc(-c3nc(NC(=O)c4ccccc4)sc3C)cc21
560	Cc1cccc2c(C(N)=O)c3c(nc12)CCC3
764	Cc1noc2ncn(CC(=O)NCCCc3ccccc3)c(=O)c12
795	CCN(CC)S(=O)(=O)N1CCC(C(=O)NCc2ccc(OC)cc2)CC1
1240	COc1nc2ccccc2nc1N1CCCC(C(=O)Nc2ccc(Cl)cc2)C1 (centres undefined)
699	CCc1ccc(NC(=O)Cn2c(N3CCCC3)nc(C)cc2=O)cc1
828	CCc1cc(=O)n(CC(=O)Nc2ccc(F)c(Cl)c2)c(N2CCOCC2)n1
600	CN1C(=O)C(CC(=O)NCc2nc3ccccc3n2C)=C2CCCCC21 (centres undefined)
784	Cc1ccc(C)c(NC(=O)Cn2ccc3ccn(C)c3c2=O)c1
814	COc1ccc(NC(=O)c2nc(N3CCSCC3)c3cnn(C)c3n2)cc1
899	O=C(NCc1cccs1)C1CCCN(c2nc3ccsc3c(=O)n2Cc2ccc(F)cc2)C1 (centres undefined)
818	O=C(Cc1noc2ccccc12)NCc1cc(-c2ccc(F)cc2F)on1
862	CC(C)n1cnc(S(=O)(=O)N2CCC(C(=O)Nc3cccc(C(F)(F)F)c3)CC2)c1
603	CC(C)NC(=O)N1CCCC1c1noc(CCC(=O)NC2CC2)n1 (centres undefined)
868	CCC1Oc2ccc(S(=O)(=O)N3CCC(C(=O)Nc4ccc(C)cc4C)CC3)cc2NC1=O (centres undefined)
687	CCc1cc(=O)n(CC(=O)Nc2ccccc2)c(N2CCOCC2)n1
